Assay results reported in patent publication US9255295B2, “Method for evaluating the sensitizing potential of a test compound” (IMMUNOSEARCH, priority 2010, dated 2016).
Read-outs that look alike come from different tables or passages of the source.

Columns and labels:
[1] = official classification: non-sensitizer, irritant, or sensitizing Extreme/Strong/Moderate/Weak; cited from earlier work
[2] = tested on: ARE gene family (AKR1B10, AKR1C1, AKR1C2, CYP1B1, FTH1P, FTL, G6PD, GCLM, NQO2, SLC7A11, TXNRD1, UGT1A1, UGT1A9, YWHAZ, CD36, CYP1A1, GCLC, HMOX1, NQO1, PSME2 …); settings: human, 6 h
[3] = tested on: genes specific for sensitization (BRAK, CTSS, DAPK2, FABP4, HSP27, IL18, HSP90, IL1R2, TPSAB1, CXCR1, DEFB1, DHFR, EHF, IVL, KRT4, MELANA, NGAL, PDZK1IP1, PI3 …); experiment: Expression of the other (non-ARE) sensitization-specific genes in EPISKIN reconstructed skin (quantitative RT-PCR); assay type: cell-based, human; settings: for BRAK expression / CTSS expression / CXCR1 expression / DAPK2 expression / DEFB1 expression / DHFR expression / EHF expression / FABP4 expression / HSP27 expression / HSP90 expression / IL18 expression / IVL expression / KRT4 expression / MELANA expression / NGAL expression / P13 expression / PDZK1iP1 expression / SERPINB3 expression: compared to the control;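 on CTSS NUMBER OF GENES grade: grade scored against expression in the control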;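 on CXCR1 NUMBER OF GENES grade: grade scored against expression in the control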;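 on DAPK2 NUMBER OF GENES grade: grade scored against expression in the control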

SMILES: O=CCCCC=O [Glutaraldehyde]
- Class [1]: S

SMILES: CC(O)C(=O)O (centres unmarked) [Lactic acid (cys pos), Lactic acid]
- CD36 expression ([2]; 1 %): 1.1
- S100A8 expression ([2]; 1 %): 0.8
- CD36 expression ([2]; 10 %): 1.1
- S100A8 expression ([2]; 10 %): 1.0
- CD36 expression ([2]; 50 %): 0.9
- S100A8 expression ([2]; 50 %): 1.1
- BRAK NUMBER OF GENES grade ([3]; 1%): 0 (if this expression is lower, the grade is 0)
- CTSS NUMBER OF GENES grade ([3]; 1%): 0 (if this expression is lower, the grade is 0)
- CXCR1 NUMBER OF GENES grade ([3]; 1%): 0 (if this expression is lower, the grade is 0)
- DAPK2 NUMBER OF GENES grade ([3]; 1%): 0 (if this expression is lower, the grade is 0)
- DEFB1 NUMBER OF GENES grade ([3]; 1%): 0 (if this expression is lower, the grade is 0)
- DHFR NUMBER OF GENES grade ([3]; 1%): 0 (if this expression is lower, the grade is 0)
- EHF NUMBER OF GENES grade ([3]; 1%): 0 (if this expression is lower, the grade is 0)
- FABP4 NUMBER OF GENES grade ([3]; 1%): 0 (if this expression is lower, the grade is 0)
- HSP27 NUMBER OF GENES grade ([3]; 1%): 0 (if this expression is lower, the grade is 0)
- HSP90 NUMBER OF GENES grade ([3]; 1%): 0 (if this expression is lower, the grade is 0)
- IL18 NUMBER OF GENES grade ([3]; 1%): 0 (if this expression is lower, the grade is 0)
- IVL NUMBER OF GENES grade ([3]; 1%): 0 (if this expression is lower, the grade is 0)
- KRT4 NUMBER OF GENES grade ([3]; 1%): 0 (if this expression is lower, the grade is 0)
- MELANA NUMBER OF GENES grade ([3]; 1%): 0 (if this expression is lower, the grade is 0)
- NGAL NUMBER OF GENES grade ([3]; 1%): 0 (if this expression is lower, the grade is 0)
- P13 NUMBER OF GENES grade ([3]; 1%): 0 (if this expression is lower, the grade is 0)
- PDZK1iP1 NUMBER OF GENES grade ([3]; 1%): 0 (if this expression is lower, the grade is 0)
- SERPINB3 NUMBER OF GENES grade ([3]; 1%): 0 (if this expression is lower, the grade is 0)
- TOTAL SENS (number of genes) ([3]; 1%): 0
- BRAK expression ([3]; 1%): 0.8
- CTSS expression ([3]; 1%): 1.0
- CXCR1 expression ([3]; 1%): 0.7
- DAPK2 expression ([3]; 1%): 1.2
- DEFB1 expression ([3]; 1%): 0.9
- DHFR expression ([3]; 1%): 0.9
- EHF expression ([3]; 1%): 0.9
- FABP4 expression ([3]; 1%): 0.7
- HSP27 expression ([3]; 1%): 1.0
- HSP90 expression ([3]; 1%): 1.0
- IL18 expression ([3]; 1%): 0.9
- IVL expression ([3]; 1%): 1.0
- KRT4 expression ([3]; 1%): 0.9
- MELANA expression ([3]; 1%): 0.7
- NGAL expression ([3]; 1%): 0.9
- P13 expression ([3]; 1%): 0.8
- PDZK1iP1 expression ([3]; 1%): 1.0
- SERPINB3 expression ([3]; 1%): 0.9
- BRAK NUMBER OF GENES grade ([3]; 10%): 0 (if this expression is lower, the grade is 0)
- CTSS NUMBER OF GENES grade ([3]; 10%): 0 (if this expression is lower, the grade is 0)
- CXCR1 NUMBER OF GENES grade ([3]; 10%): 0 (if this expression is lower, the grade is 0)
- DAPK2 NUMBER OF GENES grade ([3]; 10%): 0 (if this expression is lower, the grade is 0)
- DEFB1 NUMBER OF GENES grade ([3]; 10%): 0 (if this expression is lower, the grade is 0)
- DHFR NUMBER OF GENES grade ([3]; 10%): 0 (if this expression is lower, the grade is 0)
- EHF NUMBER OF GENES grade ([3]; 10%): 0 (if this expression is lower, the grade is 0)
- FABP4 NUMBER OF GENES grade ([3]; 10%): 0 (if this expression is lower, the grade is 0)
- HSP27 NUMBER OF GENES grade ([3]; 10%): 0 (if this expression is lower, the grade is 0)
- HSP90 NUMBER OF GENES grade ([3]; 10%): 0 (if this expression is lower, the grade is 0)
- IL18 NUMBER OF GENES grade ([3]; 10%): 0 (if this expression is lower, the grade is 0)
- IVL NUMBER OF GENES grade ([3]; 10%): 0 (if this expression is lower, the grade is 0)
- KRT4 NUMBER OF GENES grade ([3]; 10%): 0 (if this expression is lower, the grade is 0)
- MELANA NUMBER OF GENES grade ([3]; 10%): 0 (if this expression is lower, the grade is 0)
- NGAL NUMBER OF GENES grade ([3]; 10%): 0 (if this expression is lower, the grade is 0)
- P13 NUMBER OF GENES grade ([3]; 10%): 0 (if this expression is lower, the grade is 0)
- PDZK1iP1 NUMBER OF GENES grade ([3]; 10%): 0 (if this expression is lower, the grade is 0)
- SERPINB3 NUMBER OF GENES grade ([3]; 10%): 0 (if this expression is lower, the grade is 0)
- TOTAL SENS (number of genes) ([3]; 10%): 0
- BRAK expression ([3]; 10%): 1.0
- CTSS expression ([3]; 10%): 1.1
- CXCR1 expression ([3]; 10%): 0.7
- DAPK2 expression ([3]; 10%): 1.1
- DEFB1 expression ([3]; 10%): 1.0
- DHFR expression ([3]; 10%): 1.0
- EHF expression ([3]; 10%): 0.9
- FABP4 expression ([3]; 10%): 0.9
- HSP27 expression ([3]; 10%): 0.9
- HSP90 expression ([3]; 10%): 0.9
- IL18 expression ([3]; 10%): 1.0
- IVL expression ([3]; 10%): 0.9
- KRT4 expression ([3]; 10%): 0.8
- MELANA expression ([3]; 10%): 0.8
- NGAL expression ([3]; 10%): 1.0
- P13 expression ([3]; 10%): 0.8
- PDZK1iP1 expression ([3]; 10%): 1.0
- SERPINB3 expression ([3]; 10%): 1.1
- BRAK NUMBER OF GENES grade ([3]; 50%): 0 (if this expression is lower, the grade is 0)
- CTSS NUMBER OF GENES grade ([3]; 50%): 1 (If the expression is greater than 1.3 compared to the control, a grade of 11s given)
- CXCR1 NUMBER OF GENES grade ([3]; 50%): 0 (if this expression is lower, the grade is 0)
- DAPK2 NUMBER OF GENES grade ([3]; 50%): 0 (if this expression is lower, the grade is 0)
- DEFB1 NUMBER OF GENES grade ([3]; 50%): 0 (if this expression is lower, the grade is 0)
- DHFR NUMBER OF GENES grade ([3]; 50%): 0 (if this expression is lower, the grade is 0)
- EHF NUMBER OF GENES grade ([3]; 50%): 0 (if this expression is lower, the grade is 0)
- FABP4 NUMBER OF GENES grade ([3]; 50%): 0 (if this expression is lower, the grade is 0)
- HSP27 NUMBER OF GENES grade ([3]; 50%): 0 (if this expression is lower, the grade is 0)
- HSP90 NUMBER OF GENES grade ([3]; 50%): 0 (if this expression is lower, the grade is 0)
- IL18 NUMBER OF GENES grade ([3]; 50%): 0 (if this expression is lower, the grade is 0)
- IVL NUMBER OF GENES grade ([3]; 50%): 0 (if this expression is lower, the grade is 0)
- KRT4 NUMBER OF GENES grade ([3]; 50%): 0 (if this expression is lower, the grade is 0)
- MELANA NUMBER OF GENES grade ([3]; 50%): 0 (if this expression is lower, the grade is 0)
- NGAL NUMBER OF GENES grade ([3]; 50%): 0 (if this expression is lower, the grade is 0)
- P13 NUMBER OF GENES grade ([3]; 50%): 0 (if this expression is lower, the grade is 0)
- PDZK1iP1 NUMBER OF GENES grade ([3]; 50%): 0 (if this expression is lower, the grade is 0)
- SERPINB3 NUMBER OF GENES grade ([3]; 50%): 0 (if this expression is lower, the grade is 0)
- TOTAL SENS (number of genes) ([3]; 50%): 1
- BRAK expression ([3]; 50%): 0.7
- CTSS expression ([3]; 50%): 1.4
- CXCR1 expression ([3]; 50%): 0.8
- DAPK2 expression ([3]; 50%): 1.1
- DEFB1 expression ([3]; 50%): 1.1
- DHFR expression ([3]; 50%): 0.9
- EHF expression ([3]; 50%): 0.9
- FABP4 expression ([3]; 50%): 0.8
- HSP27 expression ([3]; 50%): 0.8
- HSP90 expression ([3]; 50%): 0.9
- IL18 expression ([3]; 50%): 0.8
- IVL expression ([3]; 50%): 0.9
- KRT4 expression ([3]; 50%): 0.8
- MELANA expression ([3]; 50%): 0.6
- NGAL expression ([3]; 50%): 1.0
- P13 expression ([3]; 50%): 0.9
- PDZK1iP1 expression ([3]; 50%): 1.0
- SERPINB3 expression ([3]; 50%): 1.2

SMILES: N#CCCC(Br)(C#N)CBr (centres unmarked) [2-Bromo-2-(bromomethyl)glutaronitrile]
- Class [1]: S
